Broadly, the clearance is the rate of elimination divided by the concentration. A low value points to inefficient removal. One may read the IC50 as the concentration needed to halve the response being measured. A higher IC50 goes with lower potency.

The nature of data set [1]: Plasma clearance following IV dosing, CD1 mice (Example 3 of WO 2010/086646 protocol). The class given is in vivo. Particulars: mouse, male CD1 mice, 5 mg/kg intravenously, 10% NMP/90% water. As to the method: Compound was administered both intravenously and orally to mice. Blood samples were collected at up to 7 time points over 8 hours and plasma was analysed by LC-MS/MS to determine the concentration of compound at each time point. The plasma time concentration profile was delivered along with the main calculated PK parameters (Co, Cmax, AUC-last, t1/2, tmax, Vd, and CL).
Three male CD1 mice, 25-30 g, were dosed per administration route per timepoint. Compound was administered both orally (10 mg compound per kg of body weight) and intravenously (5 mg compound per kg body weight). The excipient used was 10% NMP/90% water. Animals were given free access to food throughout the study.
At the following time points, the animals were anaesthetized, blood collected in heparinized tubes and animals were sacrificed:
Blood samples were centrifuged to obtain the plasma, which was transferred to a separate, labelled container. Aliquots from the individual time points for the three animals were analyzed singly. Protein was precipitated by adding three volumes of methanol and centrifuging for 30 min at 4° C. […] The plasma samples were quantified by LC-MS/MS and the concentration of compound in plasma was reported in μg/mL. Pharmacokinetic parameters were calculated employing non-compartmental model analysis.

A short description of data set [2]: Plasma clearance following IV dosing, CD1 mouse (Example A of WO 2014/072714 protocol). Particulars: male CD1 mouse, 5 mg/kg I.V., 10% DMSO, 15% Cremophor, 75% Saline. In kind it is in vivo. As for the experimental part:
Formulation: Solutions in 10% DMSO, 15% Cremophor, 75% Saline
Dosing: 10 mg/kg P.O. and 5 mg/kg I.V.
Protocol: • n=3 male mice per time point per route; • Terminal blood sampling at 8 time points (5 min, 10 min, 0.5 hr, 1 hr, 3 hr, 6 hr, 8 hr and, 24 hr); • Collection of plasma, bio-analysis and report of AUC, AUMC, Vss, CL, half life, MRT and bioavailability.

For data set [3], the target named is T1, HDAC6 (Homo sapiens, UniProt Q9UBN7).
T1 sequence (Q9UBN7 1-1215): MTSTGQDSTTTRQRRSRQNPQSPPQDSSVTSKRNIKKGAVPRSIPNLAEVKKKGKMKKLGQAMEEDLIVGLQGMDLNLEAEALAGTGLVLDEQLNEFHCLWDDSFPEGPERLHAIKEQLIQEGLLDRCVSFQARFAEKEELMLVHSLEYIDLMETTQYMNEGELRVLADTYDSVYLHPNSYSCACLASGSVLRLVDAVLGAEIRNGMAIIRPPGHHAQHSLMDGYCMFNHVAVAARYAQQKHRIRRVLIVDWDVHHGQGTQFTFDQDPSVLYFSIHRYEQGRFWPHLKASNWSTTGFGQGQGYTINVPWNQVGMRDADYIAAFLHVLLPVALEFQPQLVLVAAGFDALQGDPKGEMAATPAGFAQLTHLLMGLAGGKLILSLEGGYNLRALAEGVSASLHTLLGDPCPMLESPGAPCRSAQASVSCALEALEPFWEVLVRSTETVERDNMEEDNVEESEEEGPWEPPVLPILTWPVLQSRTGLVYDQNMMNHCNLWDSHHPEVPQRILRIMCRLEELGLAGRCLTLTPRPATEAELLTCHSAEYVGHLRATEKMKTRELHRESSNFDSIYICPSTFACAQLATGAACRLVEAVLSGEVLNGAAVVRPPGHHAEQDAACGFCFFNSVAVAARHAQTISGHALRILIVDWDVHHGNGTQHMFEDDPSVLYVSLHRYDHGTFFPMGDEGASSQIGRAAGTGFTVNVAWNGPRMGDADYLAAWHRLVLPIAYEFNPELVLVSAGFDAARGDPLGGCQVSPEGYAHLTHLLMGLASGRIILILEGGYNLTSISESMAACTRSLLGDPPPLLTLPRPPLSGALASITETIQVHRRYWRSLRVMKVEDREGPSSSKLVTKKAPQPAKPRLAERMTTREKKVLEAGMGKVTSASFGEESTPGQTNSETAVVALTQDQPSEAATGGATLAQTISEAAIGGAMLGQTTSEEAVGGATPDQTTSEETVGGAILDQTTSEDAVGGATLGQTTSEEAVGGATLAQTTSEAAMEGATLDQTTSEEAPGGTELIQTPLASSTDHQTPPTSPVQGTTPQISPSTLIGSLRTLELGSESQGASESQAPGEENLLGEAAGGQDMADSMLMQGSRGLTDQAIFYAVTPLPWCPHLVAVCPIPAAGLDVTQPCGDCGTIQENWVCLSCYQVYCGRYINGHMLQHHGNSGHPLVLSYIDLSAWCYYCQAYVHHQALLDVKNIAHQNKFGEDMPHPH
Kind of data set: Biochemical Selectivity: HDAC6 inhibition. The source says: (§1) Compounds of the invention may be tested for HDAC inhibitory activity by any suitable assay, e.g. the assay described in WO2008/062201.

In data set [4] the target is HDAC1 (Homo sapiens, UniProt Q13547). Kind of data set: Biochemical Selectivity: HDAC1 inhibition.
Chain of HDAC1 (Q13547 whole entry, species assumed): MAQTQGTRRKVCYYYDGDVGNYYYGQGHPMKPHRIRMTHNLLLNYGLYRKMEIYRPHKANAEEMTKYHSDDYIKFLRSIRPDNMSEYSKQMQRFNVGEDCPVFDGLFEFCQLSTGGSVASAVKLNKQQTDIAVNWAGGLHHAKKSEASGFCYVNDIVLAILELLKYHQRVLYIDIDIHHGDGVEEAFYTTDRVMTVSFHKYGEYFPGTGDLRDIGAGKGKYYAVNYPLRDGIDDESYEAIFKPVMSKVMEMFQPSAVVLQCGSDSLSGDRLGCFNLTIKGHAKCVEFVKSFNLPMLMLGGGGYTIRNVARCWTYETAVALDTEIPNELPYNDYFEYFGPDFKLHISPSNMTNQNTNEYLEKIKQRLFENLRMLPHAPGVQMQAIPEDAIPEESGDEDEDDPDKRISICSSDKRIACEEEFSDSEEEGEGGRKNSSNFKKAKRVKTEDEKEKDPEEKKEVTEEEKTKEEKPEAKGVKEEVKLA
Source text: as §1

Data set [5] can be described thus: Plasma clearance following IV dosing, Balb/c mice (Example D protocol). In kind it is in vivo. As to conditions: mouse, male Balb/c mice, 3 mg/kg i.v., 5% NMP, 5% solutol HS-15 in 90% HPβCD solution. As for the experimental part:
A group of eighteen male Balb/c mice were divided into two groups Group 1 (3 mg/kg; i.v.), Group 2 (10 mg/kg; p.o.) with each group comprising of nine mice. Animals in Group 1 were administered intravenously with Example D solution formulation in 5% NMP, 5% solutol HS-15 in 90% HPβCD solution (20% HPβCD in RO water) at 3 mg/kg dose while animals in Group 2 were administered orally with 10 mg/kg solution formulation of Example D in 5% NMP, 5% solutol HS-15 in 90% HPβCD solution (20% HPβCD in RO water). Blood samples (approximately 60 μL) were collected from retro orbital plexus under light isoflurane anesthesia such that the samples were obtained at pre-dose, 0.08, 0.25, 0.5, 1, 2, 4, 8 and 24 hr (i.v.) and pre-dose, 0.25, 0.5, 1, 2, 4, 6, 8 and 24 hr (p.o.). The blood samples were collected from set of three mice at each time point in labeled micro centrifuge tube containing K2EDTA as anticoagulant. Plasma samples were separated by centrifugation of whole blood and stored below −70° C. until bioanalysis. All samples were processed for analysis by protein precipitation using acetonitrile (ACN) and analyzed with fit for purpose LC/MS/MS method (LLOQ: 1.27 ng/mL). Pharmacokinetic parameters were calculated using the non-compartmental analysis tool of Phoenix WinNonlin (Version 6.3).

`O=C(CCCCCCN(c1ccccn1)c1ccccn1)NO` [Example 3 of WO 2010/086646]: the clearance in data set [1] turned out to be 374 mL/min/kg.

Take `Cc1nsc(N(CCCCCCC(=O)NO)c2ccccn2)n1` [Example A of WO 2014/072714]: the clearance in data set [2] is 253 mL/min/kg. For `O=C(CCCCCCN(c1cnccn1)c1cnccn1)NO` [Example A, 7-[Bis(pyrazin-2-yl)amino]-N-hydroxyheptanamide], the IC50 in data set [3] is not above 100 nM; in data set [4], more than 1000 nM. With `O=C(CCCCCCN(c1cnccn1)c1nccn2ncnc12)NO` [Example B], the IC50 in data set [3] is not above 100 nM; in data set [4], more than 1000 nM. For the molecule `O=C(CCCCCCN(c1cnccn1)c1ccn2nccc2n1)NO` [Example C, N-Hydroxy-7-[(pyrazin-2-yl)({pyrazolo[1,5-a]pyrimidin-5-yl})amino]heptanamide], the IC50 in data set [3] was not above 100 nM; in data set [4], 100 to 1000 nM.

As to `O=C(CCCCCCN(c1cnccn1)c1ccc(C(F)(F)F)nn1)NO` [Example D, N-Hydroxy-7-[(pyrazin-2-yl)[6-(trifluoromethyl)pyridazin-3-yl]amino]heptanamide], the IC50 is not above 100 nM in data set [3] and 100 to 1000 nM in data set [4]. The molecule further came in with a clearance in data set [5] of 48.6 mL/min/kg. For the molecule `COc1ccc(N(CCCCCCC(=O)NO)c2cnccn2)nn1` [Example E, N-Hydroxy-7-[(6-methoxypyridazin-3-yl)(pyrazin-2-yl)amino]heptanamide], the half-maximal inhibitory concentration (IC50) in data set [3] was not above 100 nM; in data set [4], 100 to 1000 nM. For `O=C(CCCCCCN(c1cnccn1)c1ccc2nccn2n1)NO` [Example F, N-Hydroxy-7-({imidazo[1,2-b]pyridazin-6-yl}(pyrazin-2-yl)amino) heptanamide], in that order: not above 100 nM and 100 to 1000 nM.

Regarding `Cc1nsc(N(CCCCCCC(=O)NO)c2ccnc(N3CCOCC3)n2)n1` [Example G, N-Hydroxy-7-[(3-methyl-1,2,4-thiadiazol-5-yl)[2-(morpholin-4-yl)pyrimidin-4-yl]amino]heptanamide], the half-maximal inhibitory concentration (IC50) in data set [3] is not above 100 nM; in data set [4], 100 to 1000 nM. For `O=C(CCCCCCN(c1cnccn1)c1ncncc1F)NO` [Example H, 7-[(5-Fluoropyrimidin-4-yl)(pyrazin-2-yl)amino]-N-hydroxyheptanamide], in that order: not above 100 nM and more than 1000 nM. Consider `CN(C)c1cc(N(CCCCCCC(=O)NO)c2cnccn2)ncn1` [Example I, 7-{[6-(Dimethylamino)pyrimidin-4-yl](pyrazin-2-yl)amino}-N-hydroxyheptanamide], for which the results for the IC50 in data set [3] and in data set [4] were not above 100 nM and more than 1000 nM, respectively.

With `O=C(CCCCCCN(c1cnccn1)c1ncnc2occc12)NO` [Example J, 7-({Furo[2,3-d]pyrimidin-4-yl}(pyrazin-2-yl)amino)-N-hydroxyheptanamide], the IC50 in data set [3] was not above 100 nM; in data set [4], more than 1000 nM. For `O=C(CCCCCCN(c1ccncn1)c1cnccn1)NO` [Example K, N-Hydroxy-7-[(pyrazin-2-yl)(pyrimidin-4-yl)amino]heptanamide], in that order: 100 to 1000 nM and 100 to 1000 nM.

Take `Cc1cc(C(=O)N(C)C)nc(N(CCCCCCC(=O)NO)c2nc(C)ns2)n1` [Example L, 2-{[6-(hydroxycarbamoyl)hexyl](3-methyl-1,2,4-thiadiazol-5-yl)amino}-N,N,6-trimethylpyrimidine-4-carboxamide]: the IC50 in data set [3] was not above 100 nM; in data set [4] it was 100 to 1000 nM. For `COCc1cc(N(CCCCCCC(=O)NO)c2nc(C)ns2)ncn1` [Example M, N-hydroxy-7-{[6-(methoxymethyl)pyrimidin-4-yl](3-methyl-1,2,4-thiadiazol-5-yl)amino}heptanamide], the IC50 in data set [3] is not above 100 nM; in data set [4], more than 1000 nM. For `Cn1ccc2ncnc(N(CCCCCCC(=O)NO)c3cnccn3)c21` [Example N, N-hydroxy-7-({5-methyl-5H-pyrrolo[3,2-d]pyrimidin-4-yl}(pyrazin-2-yl)amino) heptanamide], in that order: not above 100 nM and more than 1000 nM.

On to `CN(C)c1ccc(N(CCCCCCC(=O)NO)c2cnccn2)nn1` [Example O, 7-{[6-(dimethylamino)pyridazin-3-yl](pyrazin-2-yl)amino}-N-hydroxyheptanamide], for which the IC50 is not above 100 nM in data set [3] and 100 to 1000 nM in data set [4]. For `Cn1ncc2ncnc(N(CCCCCCC(=O)NO)c3cnccn3)c21` [Example P, N-hydroxy-7-({1-methyl-1H-pyrazolo[4,3-d]pyrimidin-7-yl}(pyrazin-2-yl)amino)heptanamide], in that order: not above 100 nM and more than 1000 nM.

As to `CN(C)c1cnc(N(CCCCCCC(=O)NO)c2cnccn2)cn1` [Example Q, 7-{[5-(dimethylamino)pyrazin-2-yl](pyrazin-2-yl)amino}-N-hydroxyheptanamide], the results for the IC50 in data set [3] and in data set [4] were not above 100 nM and 100 to 1000 nM, respectively. For `O=C(CCCCCCN(c1cncnc1)c1cnccn1)NO` [Example R, N-hydroxy-7-[(pyrazin-2-yl)(pyrimidin-5-yl)amino]heptanamide], in that order: not above 100 nM and more than 1000 nM. `Cc1noc(N(CCCCCCC(=O)NO)c2cncc(N3CCOCC3)n2)n1` [Example S, N-hydroxy-7-[(3-methyl-1,2,4-oxadiazol-5-yl)[6-(morpholin-4-yl)pyrazin-2-yl]amino]heptanamide]: the IC50 is not above 100 nM in data set [3] and more than 1000 nM in data set [4].

The values are drawn from patent publication US10407435B2, “Diheteroaryl histone deacetylase inhibitors and their use in therapy” (Karus Therapeutics Limited, priority 2014, dated 2019).
